Legend:
Format in all cases: in vivo, mouse
[1] = Time course of the physiological effect of DOCP treatment in wild type mice (body weight, blood electrolytes); conditions: for Change in BW (%) / Blood [Cl−] / Blood [HCO3−] / Blood [K+] / Blood [Na+]: wild type mice; for Change in BW (%): DOCP 1.7 mg i.m.
Procedure: A primary goal of the study was to characterize the temporal changes in body weight, Na^+, K^+, and acid-base homeostasis during chronic mineralocorticoid excess. Body weight and blood electrolytes were measured over an eight day time course in untreated (control) mice and those treated with DOCP (1.7 mg) (Table 1).
(§1) Mice were fed normal lab chow, given free access to water, and given an i.m. injection of 1.7 mg DOCP (Percorten V, Novartis Pharmaceuticals). For perfusion and expression studies, mice were sacrificed with Na^+ pentobarbital (i.p. 120 mg/kg) followed by cervical dislocation. For time course experiments, another group of animals were anesthetized with 3-4% isoflurane and aortic blood was collected into a heparinized syringe for immediate analysis of electrolytes and blood gases (Nova pHOx Plus analyzer, Nova Biomedical). For high K^+ diet studies, mice were given a normal, powdered diet (TD99131, Teklad) supplemented with KCl to equal 5% K^+ which was then made as a gel. Half of the mice were treated with DOCP. Blood and tissues were collected as in the time course experiments. For urinalysis experiments, mice were housed in metabolic cages for thirteen days and fed a normal gel diet with free access to a water bottle. On day five, mice were treated with DOCP as above. Urine and feces were collected daily. Urine electrolytes were measured on a clinical analyzer (Nova 16 analyzer, Nova Biomedical) and fecal electrolytes were measured on a digital flame photometer (Model 2655-00, Cole-Parmer).

HKα2 mRNA = experiment: Real time PCR of renal HKα2 mRNA expression in DOCP-treated mice
From the text: The principal mechanism of mineralocorticoid action is through modulation of target gene transcription.^15 Therefore, the next experiments evaluated the effect of DOCP on renal HKα1 and HKα2 mRNA expression. Real time quantitative PCR was used to investigate changes in steady state mRNA levels of H^+,K^+-ATPase α subunits, HKα1 and HKα2, in cortex, outer medulla, and inner medulla of control and DOCP-treated mice.
Deficits in K^+ homeostasis have long been known to stimulate H^+,K^+-ATPase activity and HKα subunit expression. Therefore, the next experiments investigated whether the decreases in blood [K^+] observed in DOCP-treated mice were responsible for the stimulation of HKα2 mRNA expression. For this experiment, mice were fed a high K^+ diet and then left untreated (control) or given DOCP treatment. Body weight and blood electrolytes were measured eight days after treatment and kidneys were collected for analysis of HKα, and HKα2 mRNA expression by real time PCR. A high K^+ diet abrogated the effect of DOCP on body weight gain, blood [K^+], [Cl^−], and [HCO3^−] in mice (Table 3). Similarly, the stimulation of HKα, or HKα2 mRNA expression with DOCP was absent in mice fed a high K^+ diet (FIGS. 3C and 3D).
RNA was recovered from cortex, medulla, and inner medulla with TRIzol reagent (Invitrogen). RNA was treated with DNase 1 (Ambion DNA Free) and converted to cDNA using SuperScript III (Invitrogen). For real time quantitative PCR, 20 ng cDNA was used to quantify mRNA expression with TaqMan Gene Expression (Applied Biosystems) primer/probe sets for HKα1 (Atp4a, Mm00444423_m1), HKα2 (Atp12a, Mm0131809_m1), and β-actin (Actb, Mm00607939_s1). Cycle threshold (Ct) values were normalized to β-actin, and relative expression (control set to 100%) was calculated by the ΔΔCt method.^28

[2] = DOCP treatment of wild type, HKα1−/− and HKα1,2−/− mice: body weight, blood electrolytes, urinary and fecal electrolyte excretion
From the text: In a separate study, the effect of DOCP treatment of body weight change, blood electrolytes, and urinary and fecal electrolyte excretion was examined in wild type, HKα1^−/−, and HKα1,2^−/− mice on a normal diet.
In the context of whole animal physiology, it is important to examine the overall electrolyte balance as the […] of urinary and fecal excretion subtracted from the intake of that electrolyte.
as §1

[3] = Survival of DOCP-treated WT and HKα1,2−/− mice over 60 days; conditions: two injections of DOCP on day zero and day 57
From the text: These animals all received two injections of DOCP on day zero and day 57. Four of the HKα1,2^−/− mice died at day's nine 46, 47, and 59 for an overall survival at 60 days of 57% for the HKα1,2^−/− mice whereas there were no deaths in the nine WT animals X^2 (log-rank): 4.554 (P<0.05).

CC(C)(C)C(=O)OCC(=O)[C@H]1CC[C@H]2[C@@H]3CCC4=CC(=O)CC[C@]4(C)[C@H]3CC[C@]12C [DOCP, desoxycorticosterone pivalate]
Change in BW (%) ([1]; Day 2): 0.06 ± 1.2 (7) % | Change in BW (%) ([1]; Day 4): 2.0 ± 1.2 (7) % | Change in BW (%) ([1]; Day 6): 5.4 ± 1.4 (7)**^,† % | Change in BW (%) ([1]; Day 8): 6.1 ± 1.2 (7)**^,† % | Blood [Cl−] ([1]; Day 2 of DOCP): 120 ± 1.8 (3) mM | Blood [HCO3−] ([1]; Day 2 of DOCP): 19 ± 0.87 (4) mM | Blood [K+] ([1]; Day 2 of DOCP): 3.5 ± 0.12 (4) mM | Blood [Na+] ([1]; Day 2 of DOCP): 150 ± 1.3 (3) mM | Blood [Cl−] ([1]; Day 4 of DOCP): 116 ± 0.95 (4) mM | Blood [HCO3−] ([1]; Day 4 of DOCP): 20 ± 1.2 (4) mM | Blood [K+] ([1]; Day 4 of DOCP): 3.5 ± 0.17 (4) mM | Blood [Na+] ([1]; Day 4 of DOCP): 153 ± 1.8 (4) mM | Blood [Cl−] ([1]; Day 6 of DOCP): 117 ± 0.35 (3) mM | Blood [HCO3−] ([1]; Day 6 of DOCP): 20 ± 0.53 (3) mM | Blood [K+] ([1]; Day 6 of DOCP): 2.9 ± 0.21 (3) mM | Blood [Na+] ([1]; Day 6 of DOCP): 153 ± 0.80 (3) mM | Blood [Cl−] ([1]; Day 8 of DOCP): 111 ± 0.82 (3)*^,**^,†,‡ mM | Blood [HCO3−] ([1]; Day 8 of DOCP): 23 ± 2.0 (3) mM | Blood [K+] ([1]; Day 8 of DOCP): 2.8 ± 0.07 (3)*^,† mM | Blood [Na+] ([1]; Day 8 of DOCP): 150 ± 0.41 (3) mM | decrease in blood [Cl−] ([1]; wild-type mice, eight days of DOCP treatment): approximately 7 mM | HKα2 mRNA expression (HKα2 mRNA; cortex, eight days after DOCP, normal diet): did not affect | HKα2 mRNA levels, increase (HKα2 mRNA; inner medulla, eight days after DOCP, normal diet): as much as five-fold | stimulation of HKα1 or HKα2 mRNA expression with DOCP (HKα2 mRNA; mice fed a high K+ diet): absent | HKα2 mRNA levels, increase (HKα2 mRNA; outer medulla, eight days after DOCP, normal diet): more than two-fold | effect of DOCP to decrease blood [Cl−] and increase blood [HCO3−] ([2]; HKα1,2−/− mice, day eight): eliminated | K+ retention, less than wild type mice with DOCP treatment ([2]; HKα1,2−/− mice, day eight, overall balance): ~40% | Overall Na+ retention versus wild type or HKα1−/− mice ([2]; HKα1,2−/− mice, eighth day of DOCP treatment): significantly less | increase of fecal K+ loss with DOCP treatment ([2]; HKα1−/− and HKα1,2−/− mice, versus control period): ~50% | Urine volume by the end of DOCP treatment ([2]; HKα1−/− mice): considerably decreased | DOCP-induced body weight gain relative to wild type ([2]; HKα1−/− mice, day eight, normal diet): augmented nearly two-fold | dry stool weight, more than wild type or HKα1,2−/− mice when treated with DOCP ([2]; HKα1−/− mice, pair fed): 50% | Urine volume by the end of DOCP treatment ([2]; wild type and HKα1,2−/− mice): doubled | overall Na+ balance with DOCP treatment ([2]; wild type mice): increased | overall survival at 60 days ([3]; HKα1,2−/− mice (seven)): 57% | deaths over 60 days ([3]; nine WT mice): no deaths

Reference: patent publication US20140127235A1, “TARGETING HK alpha FOR CONTROLLING BLOOD PRESSURE AND REGULATING ELECTROLYTE BALANCE” (UNIVERSITY OF FLORIDA RESEARCH FOUNDATION, INC., priority 2011, published 2014)
